The text below walks through data of ChEMBL document CHEMBL5465560, “Selectivity Literature for EUbOPEN Chemogenomic Library” (2024).

As a reminder, the IC50 is the concentration that gives 50% inhibition.

Test [1] concerns the target T1, Serine/threonine-protein kinase Sgk3 (Homo sapiens) (UniProt Q96BR1).
T1 sequence (whole entry): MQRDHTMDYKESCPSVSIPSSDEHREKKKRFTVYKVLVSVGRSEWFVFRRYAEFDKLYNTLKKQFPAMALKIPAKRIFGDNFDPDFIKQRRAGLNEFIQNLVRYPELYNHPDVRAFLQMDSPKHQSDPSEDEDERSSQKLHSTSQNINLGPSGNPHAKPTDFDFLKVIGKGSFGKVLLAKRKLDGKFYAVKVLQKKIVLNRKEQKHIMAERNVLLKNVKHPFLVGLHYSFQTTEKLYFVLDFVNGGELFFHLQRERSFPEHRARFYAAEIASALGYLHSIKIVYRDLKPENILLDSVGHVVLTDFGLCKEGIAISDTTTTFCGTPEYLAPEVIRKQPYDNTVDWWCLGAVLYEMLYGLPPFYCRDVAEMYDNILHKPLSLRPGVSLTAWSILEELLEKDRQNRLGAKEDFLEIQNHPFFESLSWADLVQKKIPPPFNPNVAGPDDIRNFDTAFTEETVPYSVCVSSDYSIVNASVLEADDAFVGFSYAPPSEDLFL
Kind of test: Selectivity interaction (Ambit KINOMEscan and KiNATiv profiling in Jurkat cells) EUB0000090b SGK3. Conditions: at 1 µM. The class given is cell-based.

Test [2] concerns the target Platelet-derived growth factor receptor beta (Homo sapiens, UniProt P09619). Kind of test: Selectivity interaction (SelectScreen profiling (Invitrogen)) EUB0000607a PDGFRB. Conditions: at 2 µM.
The target of test [3] is AP2-associated protein kinase 1 (Homo sapiens, UniProt Q2M2I8). Conditions: at 10 µM.
For test [4], the target named is T2, Serine/threonine-protein kinase DCLK3 (Homo sapiens) (UniProt Q9C098).
T2 sequence (whole entry): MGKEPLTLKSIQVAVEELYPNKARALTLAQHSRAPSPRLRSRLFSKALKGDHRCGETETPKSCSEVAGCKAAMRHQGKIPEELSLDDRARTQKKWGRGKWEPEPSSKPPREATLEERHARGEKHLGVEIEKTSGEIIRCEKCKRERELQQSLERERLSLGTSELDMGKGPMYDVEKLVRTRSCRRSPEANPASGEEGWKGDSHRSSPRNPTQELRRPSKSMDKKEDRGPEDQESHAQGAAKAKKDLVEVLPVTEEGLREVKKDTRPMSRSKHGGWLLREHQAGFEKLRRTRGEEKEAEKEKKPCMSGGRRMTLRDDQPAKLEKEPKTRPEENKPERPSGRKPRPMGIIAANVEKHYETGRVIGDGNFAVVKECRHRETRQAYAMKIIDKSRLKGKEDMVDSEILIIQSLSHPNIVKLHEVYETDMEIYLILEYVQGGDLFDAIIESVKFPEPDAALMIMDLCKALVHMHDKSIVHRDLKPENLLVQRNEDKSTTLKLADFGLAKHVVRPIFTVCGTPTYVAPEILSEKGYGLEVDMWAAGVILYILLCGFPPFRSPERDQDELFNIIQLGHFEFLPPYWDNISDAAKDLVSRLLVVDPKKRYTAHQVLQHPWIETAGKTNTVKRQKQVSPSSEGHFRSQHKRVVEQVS
Kind of test: Selectivity interaction (KinomeScan (DiscoverX)) EUB0000655a DCLK3. Conditions: at 10 µM.

The test system of test [5] is Tyrosine-protein kinase ABL1 (Homo sapiens), P00519 [F317I]. Kind of test: Selectivity interaction (KinomeScan (DiscoverX)) EUB0000655a ABL1. The settings on record: at 10 µM.
In test [6] the target is Sodium-dependent noradrenaline transporter (Homo sapiens, UniProt P23975). Kind of test: Selectivity interaction (Norepinephrine Transporter assay, human recombinant ) EUB0000877a SLC6A2.
Test [7] addresses T3, Serine/threonine-protein kinase DCLK2 (Homo sapiens) (UniProt Q8N568).
T3 sequence (whole entry): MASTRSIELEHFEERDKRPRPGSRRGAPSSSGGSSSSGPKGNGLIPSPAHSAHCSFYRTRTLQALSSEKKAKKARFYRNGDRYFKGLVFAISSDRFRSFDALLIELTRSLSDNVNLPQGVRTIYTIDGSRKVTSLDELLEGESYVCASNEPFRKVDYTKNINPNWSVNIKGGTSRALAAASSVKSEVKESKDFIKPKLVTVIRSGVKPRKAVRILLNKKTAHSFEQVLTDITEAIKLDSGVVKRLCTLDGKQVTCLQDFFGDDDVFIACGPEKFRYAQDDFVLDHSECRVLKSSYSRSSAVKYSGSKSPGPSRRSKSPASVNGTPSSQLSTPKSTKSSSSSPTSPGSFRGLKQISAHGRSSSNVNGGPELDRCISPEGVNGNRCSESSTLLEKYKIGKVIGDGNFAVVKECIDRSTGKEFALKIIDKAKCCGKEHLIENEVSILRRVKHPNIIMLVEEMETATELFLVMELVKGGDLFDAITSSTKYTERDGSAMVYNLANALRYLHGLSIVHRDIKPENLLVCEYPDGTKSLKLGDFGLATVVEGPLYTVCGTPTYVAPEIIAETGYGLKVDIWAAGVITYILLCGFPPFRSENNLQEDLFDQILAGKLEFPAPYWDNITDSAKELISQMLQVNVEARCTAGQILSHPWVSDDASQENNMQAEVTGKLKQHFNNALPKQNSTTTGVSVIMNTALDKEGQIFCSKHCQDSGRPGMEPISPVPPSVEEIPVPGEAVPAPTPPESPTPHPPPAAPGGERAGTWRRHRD
Kind of test: Selectivity interaction (Kinase panel (Invitrogen)) EUB0000639a DCLK2. Conditions: at 200 nM.

Test [8] addresses Protein kinase C eta type (Homo sapiens) (UniProt P24723). Kind of test: Selectivity interaction (KinomeScan (DiscoverX)) EUB0000695a PRKCH. Conditions: at 100 nM.
Test [9] concerns Epidermal growth factor receptor (Homo sapiens), P00533 [UNDEFINED MUTATION]. Kind of test: Selectivity interaction (ProQinase) EUB0000171b EGFR. Conditions: at 1 µM.
The target in test [10] is STE20-like serine/threonine-protein kinase (Homo sapiens, UniProt Q9H2G2). Kind of test: Selectivity interaction (KinomeScan (DiscoverX)) EUB0000595a SLK. Conditions: at 10 µM.
Sequence of STE20-like serine/threonine-protein kinase (Q9H2G2 whole entry, looked up): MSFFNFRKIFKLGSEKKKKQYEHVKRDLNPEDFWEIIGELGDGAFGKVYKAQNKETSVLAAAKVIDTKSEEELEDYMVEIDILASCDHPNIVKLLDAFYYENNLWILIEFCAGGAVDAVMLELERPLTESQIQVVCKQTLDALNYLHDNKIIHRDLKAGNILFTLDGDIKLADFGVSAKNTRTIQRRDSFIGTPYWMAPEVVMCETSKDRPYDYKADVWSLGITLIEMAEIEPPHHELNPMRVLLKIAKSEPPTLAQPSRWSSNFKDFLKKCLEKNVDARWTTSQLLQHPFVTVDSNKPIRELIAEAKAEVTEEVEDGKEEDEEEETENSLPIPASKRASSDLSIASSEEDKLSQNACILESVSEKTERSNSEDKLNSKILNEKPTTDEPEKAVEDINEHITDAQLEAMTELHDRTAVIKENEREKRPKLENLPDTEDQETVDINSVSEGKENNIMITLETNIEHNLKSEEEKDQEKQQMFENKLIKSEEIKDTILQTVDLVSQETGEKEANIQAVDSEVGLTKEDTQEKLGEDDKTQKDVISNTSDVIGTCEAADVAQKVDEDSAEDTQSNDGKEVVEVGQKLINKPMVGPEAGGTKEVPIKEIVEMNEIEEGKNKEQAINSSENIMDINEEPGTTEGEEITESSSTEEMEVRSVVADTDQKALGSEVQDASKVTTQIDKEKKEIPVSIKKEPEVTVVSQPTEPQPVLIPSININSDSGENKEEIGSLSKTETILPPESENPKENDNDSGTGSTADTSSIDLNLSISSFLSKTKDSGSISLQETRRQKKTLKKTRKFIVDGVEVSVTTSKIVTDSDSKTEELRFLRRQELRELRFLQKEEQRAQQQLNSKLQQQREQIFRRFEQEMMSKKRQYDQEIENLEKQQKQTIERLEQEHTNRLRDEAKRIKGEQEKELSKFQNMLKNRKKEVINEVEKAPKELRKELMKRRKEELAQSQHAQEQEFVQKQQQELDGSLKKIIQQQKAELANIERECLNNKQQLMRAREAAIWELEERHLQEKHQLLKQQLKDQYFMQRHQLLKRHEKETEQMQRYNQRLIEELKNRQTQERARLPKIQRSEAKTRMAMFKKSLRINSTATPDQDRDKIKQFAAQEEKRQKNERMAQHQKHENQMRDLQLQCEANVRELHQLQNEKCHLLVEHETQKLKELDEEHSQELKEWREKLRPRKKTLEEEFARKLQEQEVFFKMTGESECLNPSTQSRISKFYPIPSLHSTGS

Sequence of AP2-associated protein kinase 1 (Q2M2I8 whole entry, looked up): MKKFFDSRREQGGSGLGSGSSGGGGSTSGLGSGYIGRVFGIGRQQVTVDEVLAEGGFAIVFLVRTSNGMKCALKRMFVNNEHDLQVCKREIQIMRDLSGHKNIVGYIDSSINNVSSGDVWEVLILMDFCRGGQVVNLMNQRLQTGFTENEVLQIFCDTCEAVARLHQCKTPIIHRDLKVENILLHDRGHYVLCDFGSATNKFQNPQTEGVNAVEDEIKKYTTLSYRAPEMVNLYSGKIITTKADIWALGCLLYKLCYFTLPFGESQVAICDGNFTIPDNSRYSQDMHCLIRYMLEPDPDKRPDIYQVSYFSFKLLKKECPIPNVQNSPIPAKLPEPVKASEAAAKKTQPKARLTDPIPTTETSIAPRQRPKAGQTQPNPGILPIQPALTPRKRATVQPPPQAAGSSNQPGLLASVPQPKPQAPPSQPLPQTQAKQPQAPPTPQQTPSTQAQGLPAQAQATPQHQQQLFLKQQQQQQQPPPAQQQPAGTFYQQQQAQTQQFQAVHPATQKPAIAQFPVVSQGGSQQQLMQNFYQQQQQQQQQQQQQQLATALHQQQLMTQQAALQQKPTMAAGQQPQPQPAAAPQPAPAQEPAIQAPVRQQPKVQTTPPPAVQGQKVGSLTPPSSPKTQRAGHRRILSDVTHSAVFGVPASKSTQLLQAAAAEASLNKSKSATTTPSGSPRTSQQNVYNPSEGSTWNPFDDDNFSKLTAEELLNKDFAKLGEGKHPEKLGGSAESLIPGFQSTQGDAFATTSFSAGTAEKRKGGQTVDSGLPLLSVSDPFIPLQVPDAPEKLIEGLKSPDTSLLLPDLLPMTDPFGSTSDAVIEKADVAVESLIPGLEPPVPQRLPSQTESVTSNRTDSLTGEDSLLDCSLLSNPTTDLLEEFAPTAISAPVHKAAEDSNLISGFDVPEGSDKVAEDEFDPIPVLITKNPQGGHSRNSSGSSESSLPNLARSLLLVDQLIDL
Sequence of Epidermal growth factor receptor (Homo sapiens), P00533 [UNDEFINED MUTATION] (P00533 whole entry, looked up, change not shown): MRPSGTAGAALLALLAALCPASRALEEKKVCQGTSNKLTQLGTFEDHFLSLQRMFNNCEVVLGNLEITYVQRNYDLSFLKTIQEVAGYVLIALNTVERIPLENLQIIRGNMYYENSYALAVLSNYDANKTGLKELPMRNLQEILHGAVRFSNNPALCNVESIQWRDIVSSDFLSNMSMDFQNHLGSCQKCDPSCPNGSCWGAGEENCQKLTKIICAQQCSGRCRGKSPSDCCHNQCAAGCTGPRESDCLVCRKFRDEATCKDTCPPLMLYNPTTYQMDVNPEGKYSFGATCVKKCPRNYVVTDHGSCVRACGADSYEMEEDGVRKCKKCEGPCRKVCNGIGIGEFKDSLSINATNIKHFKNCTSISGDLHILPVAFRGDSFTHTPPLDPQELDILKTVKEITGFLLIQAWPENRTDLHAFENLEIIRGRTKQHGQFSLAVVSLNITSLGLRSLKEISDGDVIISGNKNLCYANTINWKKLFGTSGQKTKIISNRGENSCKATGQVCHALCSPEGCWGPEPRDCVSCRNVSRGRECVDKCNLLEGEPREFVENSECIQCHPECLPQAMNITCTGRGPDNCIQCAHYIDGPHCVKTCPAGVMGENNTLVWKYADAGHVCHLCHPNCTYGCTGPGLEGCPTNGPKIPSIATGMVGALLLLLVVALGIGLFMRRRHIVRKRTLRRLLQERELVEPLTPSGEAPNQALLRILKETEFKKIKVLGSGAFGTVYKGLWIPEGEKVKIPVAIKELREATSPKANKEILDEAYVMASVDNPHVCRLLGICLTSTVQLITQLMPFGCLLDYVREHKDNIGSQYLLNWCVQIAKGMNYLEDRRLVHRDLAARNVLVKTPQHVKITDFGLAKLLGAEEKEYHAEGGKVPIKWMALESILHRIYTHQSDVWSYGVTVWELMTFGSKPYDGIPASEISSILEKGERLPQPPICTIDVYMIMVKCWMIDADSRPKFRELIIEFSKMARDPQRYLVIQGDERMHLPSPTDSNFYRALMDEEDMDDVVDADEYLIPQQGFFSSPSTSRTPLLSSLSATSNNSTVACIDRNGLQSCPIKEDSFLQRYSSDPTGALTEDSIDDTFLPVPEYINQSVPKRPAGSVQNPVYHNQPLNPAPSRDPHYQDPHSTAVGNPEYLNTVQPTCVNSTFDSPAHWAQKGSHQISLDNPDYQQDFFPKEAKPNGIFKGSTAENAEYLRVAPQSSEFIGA
Sequence of Protein kinase C eta type (Homo sapiens) (P24723 whole entry): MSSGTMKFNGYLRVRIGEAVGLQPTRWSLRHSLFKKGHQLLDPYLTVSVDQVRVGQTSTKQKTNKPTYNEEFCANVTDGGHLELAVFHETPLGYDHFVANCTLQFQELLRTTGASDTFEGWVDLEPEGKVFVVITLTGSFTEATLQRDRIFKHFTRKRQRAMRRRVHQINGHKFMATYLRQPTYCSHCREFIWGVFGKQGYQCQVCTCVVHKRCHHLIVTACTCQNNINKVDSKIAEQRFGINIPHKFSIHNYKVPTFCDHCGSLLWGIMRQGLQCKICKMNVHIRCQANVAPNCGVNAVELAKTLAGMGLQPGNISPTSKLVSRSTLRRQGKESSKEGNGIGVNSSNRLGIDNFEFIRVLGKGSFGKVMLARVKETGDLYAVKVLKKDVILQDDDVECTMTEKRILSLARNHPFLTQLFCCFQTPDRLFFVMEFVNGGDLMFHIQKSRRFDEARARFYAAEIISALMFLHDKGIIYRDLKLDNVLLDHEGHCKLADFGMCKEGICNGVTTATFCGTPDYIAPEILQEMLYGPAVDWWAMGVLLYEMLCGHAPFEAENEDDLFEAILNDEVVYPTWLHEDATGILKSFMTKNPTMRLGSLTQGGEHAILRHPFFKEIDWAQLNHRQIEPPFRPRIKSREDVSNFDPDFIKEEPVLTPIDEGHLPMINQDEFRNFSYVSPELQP
Sequence of Sodium-dependent noradrenaline transporter (P23975 whole entry): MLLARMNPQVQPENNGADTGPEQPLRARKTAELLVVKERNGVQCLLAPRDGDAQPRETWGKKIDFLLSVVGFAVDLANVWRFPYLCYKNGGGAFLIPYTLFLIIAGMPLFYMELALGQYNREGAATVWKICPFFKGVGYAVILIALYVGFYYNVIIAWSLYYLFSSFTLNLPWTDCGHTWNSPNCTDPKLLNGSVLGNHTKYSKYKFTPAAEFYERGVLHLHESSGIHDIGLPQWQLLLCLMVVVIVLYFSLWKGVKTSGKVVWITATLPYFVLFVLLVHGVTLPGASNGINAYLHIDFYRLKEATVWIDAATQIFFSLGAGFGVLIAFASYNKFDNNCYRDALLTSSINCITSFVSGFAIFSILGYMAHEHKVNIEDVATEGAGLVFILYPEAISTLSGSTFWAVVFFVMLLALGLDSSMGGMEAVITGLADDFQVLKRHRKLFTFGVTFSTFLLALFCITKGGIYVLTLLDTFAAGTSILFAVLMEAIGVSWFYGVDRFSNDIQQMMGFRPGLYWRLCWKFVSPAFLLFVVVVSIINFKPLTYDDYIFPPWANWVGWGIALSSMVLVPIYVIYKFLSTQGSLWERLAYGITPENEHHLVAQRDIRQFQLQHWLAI

`CN(C)C/C=C/C(=O)Nc1ccc(C(=O)N2CCCC(Nc3ncc(Cl)c(-c4c[nH]c5ccccc45)n3)C2)cc1` (stereo not given) returned a % of control in test [1] of 84%.
`CNC(=O)Nc1ccc(-c2nc(N3CC4CCC(C3)O4)c3cnn(C4CCC5(CC4)OCCO5)c3n2)cc1` yielded a % of inhibition in test [2] of 2%.
`Cc1cc([C@@H](C)Nc2ccccc2C(=O)O)c2nc(N3CCOCC3)cc(=O)n2c1` [AZD-6482] gave a % of control in test [3] of 95%.
As for `CN(C)CCOc1ccc(-c2nc(-c3ccncc3)c(-c3ccc4c(c3)CC/C4=N\O)[nH]2)cc1`, the % of control was found to be 89% in [4] and 81% in test [5].
Take `CCC(=O)N1CC[C@H](Nc2ncnc3c2CN(c2cnc(OC)c(C(F)(F)F)c2)CC3)C1` [LENIOLISIB]: the IC50 in test [6] was above 30 µM.
As to `CC[C@@H]1[C@H](F)C(=O)N[C@@H]1COc1nccc2cc(C(N)=O)c(OC)cc12` [ZIMLOVISERTIB], the % of inhibition in test [7] was 24.9%.
Turning to `Cc1cc(F)c(C(=O)Nc2cccc(-c3nncn3C(C)C)n2)cc1-n1cnc(C2CC2)c1`, the % of control in test [8] came out at 91%.
In test [9], `C=CC(=O)Nc1cccc(C(=O)Nc2ccc(Nc3cc(-c4[nH]c(SC)nc4C)ccn3)cc2)c1` registered a % of control of 85%.
Compound `COCC(=O)NC/C=C/c1ccc2ncnc(Nc3ccc(Oc4ccc(C)nc4)c(C)c3)c2c1` [CP-724714] gave a % of control in [10] of 60%.
